Experimental findings from US20220251052A1, “IMPROVED PROCESS FOR THE PREPARATION OF 2-(3,5-DICHLOROPHENYL)-1,3-BENZOXAZOLE-6-CARBOXYLIC ACID OR ITS PHARMACEUTICALLY ACCEPTABLE SALTS AND POLYMORPHS THEREOF” (MSN LABORATORIES PRIVATE LIMITED, R&D CENTER, priority 2019, published 2022) are described below.

The data set in a line: Solid-state stability of the crystalline form under stress conditions. The data set is classed as physicochemical. The settings on record: 60±5° C. for 24 hours; 10 tons of pressure; UV light at 254nm for 24 hours; 75±5% relative humidity for 24 hours. How it is done: In third aspect of third embodiment, crystalline Form-R of Tafamidis of formula (I) is stable under stress conditions at 60±5° C. for 24 hours, 10 tons of pressure, under UV light at 254nm for 24 hours and higher humidity conditions of 75±5% relative humidity for 24 hours.

With `O=C(O)c1ccc2nc(-c3cc(Cl)cc(Cl)c3)oc2c1` [Form-R, 2-(3,5-dichlorophenyl)-1,3-benzoxazole-6-carboxylic acid], the “polymorphic stability under stress conditions (does not convert to any other polymorphic form)” value was “stable”.
